Biological target: FabG4 (β-ketoacyl CoA reductase, EC 1.1.1.100) (Mycobacterium tuberculosis, UniProt I6Y778)

COc1ccc(C(c2ccc(OCCN(C(C)C)C(C)C)cc2)c2cccs2)cc1 (racemic) [S-S006-830, diisopropyl-(2-{4-[(R,S)-(4-methoxy-phenyl)-thiophen-2-yl-methyl]-phenoxy}-ethyl)-amine (printed for the racemate S006-830)]
affinity pull-down on compound-linked agarose beads, 2-DE, LC-MS-MS: The pull-down of FabG4 by drug-affinity beads along with its overexpression by S-S006-830-resistant Mtb

From article PMC6045410 (ACS Omega, 2017)
